In patent publication US20260022142A1, “MACROCYCLIC IMMUNOMODULATORS” (Bristol-Myers Squibb Company, priority 2022, published 2026):
Numbered stars: 1 amine (or outer) side, 2 acyl side, 3 side chain; on linkers, the order of the positions; unused ones are H or OH. Bridge positions count the residues as written; N and C are the ends. Square brackets hold non-standard residues; d marks the D form. Peptide text beside a SMILES is read from it. * marks the point of attachment. ξ: configuration not given here. X2 = CC(C)C[C@H](N[*:1])C(=O)C[C@H](C(=O)[*:2])C(C)C; Bip = N[CH](Cc1ccc(-c2ccccc2)cc1)C(=O)O; Phe(3-Me) = Cc1cccc(C[C@H](N)C(=O)O)c1; γGlu = O=C(O)[C@H](CCC(=O)[*:2])N[*:1]; NH(CH2)12COOH = O=C(O)CCCCCCCCCCCCN*; hArg = N=C(N)NCCCC[C@H](N)C(=O)O; Cha = N[CH](CC1CCCCC1)C(=O)O; Ile(3ξ) = CCC(C)[C@H](N)C(=O)O; aThr = C[C@H](O)[C@H](N)C(=O)O; 4Pal = N[CH](Cc1ccncc1)C(=O)O; Thr(3ξ) = CC(O)[C@H](N)C(=O)O; 12Ado = NCCCCCCCCCCCC(=O)O; dOrn = NCCC[C@@H](N)C(=O)O; Carboxymethyl = O=C(O)C*; Orn = NCCC[CH](N)C(=O)O; Aun = NCCCCCCCCCCC(=O)O; Dab = NCC[CH](N)C(=O)O; AEEA = NCCOCCOCC(=O)O

Target: T1, PD-1/PD-L1 interaction (PE-labeled human PD-L1-Ig binding to Jurkat cell line over-expressing human PD-1) (Homo sapiens, UniProt Q15116)
T1 construct: expressed in transfected cells; host or cells: Jurkat
Test: Jurkat-PD-1 Cell Binding High-Content Screening Assay (CBA)
Type: cell-based
Details: Jurkat cell line over-expressing human PD-1; PE-labeled PD-L1-Ig 20 nM final; read-out: Jurkat hPD1-PDL1 IC50
How it was run: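 Binding of fluorescent PD-L1-Ig (20 nM final) to Jurkat-PD-1 cells was measured by automated imaging after 1 h, following a 2 h compound pre-treatment at 37° C.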

T1 sequence (Q15116 25-288): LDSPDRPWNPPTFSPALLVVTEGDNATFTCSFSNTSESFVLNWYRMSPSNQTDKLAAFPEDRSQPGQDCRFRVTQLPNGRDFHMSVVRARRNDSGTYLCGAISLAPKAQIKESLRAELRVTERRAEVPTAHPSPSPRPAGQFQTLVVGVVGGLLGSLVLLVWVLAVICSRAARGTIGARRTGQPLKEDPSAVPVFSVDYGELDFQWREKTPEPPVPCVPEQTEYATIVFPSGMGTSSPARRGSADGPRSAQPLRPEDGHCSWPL

Structure (SMILES) | IC50 [µM]
CC(C)C[C@@H]1NC(=O)[C@H](CCN)NC(=O)[C@@H](CC(C)C)NC(=O)[C@H](CCN)NC(=O)[C@H](C(C)C)NC(=O)[C@H](Cc2ccc(-c3ccccc3)cc2)NC(=O)[C@H](CC(C)C)NC(=O)[C@H](Cc2c[nH]c3ccccc23)NC(=O)[C@H](CC(=O)O)NC(=O)[C@H](Cc2ccc(OCC(=O)O)cc2)NC(=O)[C@H](Cc2ccc(OCC(=O)O)cc2)NC(=O)CSC[C@@H](C(=O)N[C@H](CCCN)C(=O)NCCOCCOCC(=O)NCCCCCCCCCCC(=O)O)NC(=O)[C@H](CO)NC(=O)[C@H](C(C)C)CC1=O [Compound 3073] ({CH2CO}-Y(Carboxymethyl)Y(Carboxymethyl)DWL[Bip]V[Dab][dL][Dab][X2]SC[dOrn][AEEA][Aun]-OH; thioether N-13) | 0.0172
CCC(C)[C@@H]1NC(=O)[C@H](Cc2ccc(-c3ccccc3)cc2)NC(=O)[C@H](CC(C)C)NC(=O)[C@H](Cc2c[nH]c3ccccc23)NC(=O)[C@H](CC(=O)O)NC(=O)[C@H](Cc2ccc(OCC(=O)O)cc2)NC(=O)[C@H]([C@H](C)O)NC(=O)CSC[C@@H](C(=O)NCCOCCOCC(=O)N[C@@H](CCCCN)C(=O)NCCCCCCCCCCC(=O)O)NC(=O)[C@H](CO)NC(=O)[C@H](C(C)C)NC(=O)[C@H](CC(C)C)NC(=O)[C@H](CCN)NC(=O)[C@@H](CC(C)C)NC(=O)[C@H](CCCN)NC1=O (stereo partly drawn) [Compound 3081] ({CH2CO}-[aThr]Y(Carboxymethyl)DWL[Bip][Ile(3ξ)][Orn][dL][Dab]LVSC[AEEA]K[Aun]-OH; thioether N-14) | 0.0207
CCC(C)[C@@H]1NC(=O)[C@H](Cc2ccc(-c3ccccc3)cc2)NC(=O)[C@H](C(C)C)NC(=O)[C@H](Cc2c[nH]c3ccccc23)NC(=O)[C@H](CC(=O)O)NC(=O)[C@H](Cc2ccc(OCC(=O)O)cc2)NC(=O)[C@H](CCCCNC(=N)N)NC(=O)CSC[C@@H](C(=O)NCCOCCOCC(=O)N[C@@H](CCCCN)C(=O)NCCCCCCCCCCC(=O)O)NC(=O)[C@H](CO)NC(=O)[C@H](C(C)C)NC(=O)[C@H](CC2CCCCC2)NC(=O)[C@H](CCN)NC(=O)[C@@H](CC(C)C)NC(=O)[C@H](CCCN)NC1=O (stereo partly drawn) [Compound 3082] ({CH2CO}-[hArg]Y(Carboxymethyl)DWV[Bip][Ile(3ξ)][Orn][dL][Dab][Cha]VSC[AEEA]K[Aun]-OH; thioether N-14) | 0.0113
CCC(C)[C@@H]1NC(=O)[C@H](Cc2ccc(-c3ccccc3)cc2)NC(=O)[C@H](C(C)C)NC(=O)[C@H](Cc2c[nH]c3ccccc23)NC(=O)[C@H](CC(=O)O)NC(=O)[C@H](Cc2ccc(OCC(=O)O)cc2)NC(=O)[C@H]([C@H](C)O)NC(=O)CSC[C@@H](C(=O)NCCOCCOCC(=O)N[C@@H](CCCCN)C(=O)NCCCCCCCCCCC(=O)O)NC(=O)[C@H](CO)NC(=O)[C@H](C(C)C)NC(=O)[C@H](CC(C)C)NC(=O)[C@H](CCN)NC(=O)[C@@H](CC(C)C)NC(=O)[C@H](CCCN)NC1=O (stereo partly drawn) [Compound 3083] ({CH2CO}-[aThr]Y(Carboxymethyl)DWV[Bip][Ile(3ξ)][Orn][dL][Dab]LVSC[AEEA]K[Aun]-OH; thioether N-14) | 0.0262
CCC(C)[C@@H]1NC(=O)[C@H](Cc2ccc(-c3ccccc3)cc2)NC(=O)[C@H](CC(C)C)NC(=O)[C@H](Cc2cccc(C)c2)NC(=O)[C@H](CC(=O)O)NC(=O)[C@H](Cc2ccc(OCC(=O)O)cc2)NC(=O)[C@H](Cc2ccc(OCC(=O)O)cc2)NC(=O)CSC[C@@H](C(=O)NCCOCCOCC(=O)N[C@@H](CCC(=O)NCCCCCCCCCCC(=O)O)C(=O)O)NC(=O)[C@H](CO)NC(=O)[C@H](C(C)C)NC(=O)[C@H](CC(C)C)NC(=O)[C@H](CCN)NC(=O)[C@@H](CC(C)C)NC(=O)[C@H](CCCN)NC1=O (stereo partly drawn) [Compound 3085] ({CH2CO}-Y(Carboxymethyl)Y(Carboxymethyl)D[Phe(3-Me)]L[Bip][Ile(3ξ)][Orn][dL][Dab]LVSC[AEEA][γGlu][Aun]-OH; thioether N-14) | 0.012
CCC(C)C1NC(=O)C(Cc2ccc(-c3ccccc3)cc2)NC(=O)C(CC(C)C)NC(=O)C(Cc2c[nH]c3ccccc23)NC(=O)C(CC(=O)O)NC(=O)C(Cc2ccc(OCC(=O)O)cc2)NC(=O)C(Cc2ccncc2)NC(=O)CSCC(C(=O)NCCOCCOCC(=O)NC(CCCN)C(=O)NCCCCCCCCCCC(=O)O)NC(=O)C(C(C)O)NC(=O)C(C(C)C)NC(=O)C(CC2CCCCC2)NC(=O)C(CCN)NC(=O)C(CC(C)C)NC(=O)C(CCCN)NC1=O (centres unmarked) [Compound 3089] ({CH2CO}-[4Pal]Y(Carboxymethyl)DWL[Bip]I[Orn]L[Dab][Cha]VTC[AEEA][Orn][Aun]-OH; thioether N-14; configuration not given here) | 0.0392
CCC(C)[C@@H]1NC(=O)[C@H](Cc2ccc(-c3ccccc3)cc2)NC(=O)[C@H](C(C)C)NC(=O)[C@H](Cc2c[nH]c3ccccc23)NC(=O)[C@H](CC(=O)O)NC(=O)[C@H](Cc2ccc(OCC(=O)O)cc2)NC(=O)[C@H](C(C)O)NC(=O)CSC[C@@H](C(=O)N[C@H](CCCN)C(=O)NCCOCCOCC(=O)NCCCCCCCCCCC(=O)O)NC(=O)[C@H](CO)NC(=O)[C@H](C(C)C)NC(=O)[C@H](CC(C)C)NC(=O)[C@H](CCN)NC(=O)[C@@H](CC(C)C)NC(=O)[C@H](CCCN)NC1=O (stereo partly drawn) [Compound 3090] ({CH2CO}-[Thr(3ξ)]Y(Carboxymethyl)DWV[Bip][Ile(3ξ)][Orn][dL][Dab]LVSC[dOrn][AEEA][Aun]-OH; thioether N-14) | 0.0998
CCC(C)[C@@H]1NC(=O)[C@H](Cc2ccc(-c3ccccc3)cc2)NC(=O)[C@H](C(C)C)NC(=O)[C@H](Cc2cccc(C)c2)NC(=O)[C@H](CC(=O)O)NC(=O)[C@H](Cc2ccc(OCC(=O)O)cc2)NC(=O)[C@H](C(C)O)NC(=O)CSC[C@@H](C(=O)N[C@H](CCN)C(=O)NCCCCCCCCCCC(=O)O)NC(=O)[C@H](C(C)O)NC(=O)[C@H](C(C)C)NC(=O)[C@H](CC2CCCCC2)NC(=O)[C@H](CCN)NC(=O)[C@@H](CC(C)C)NC(=O)[C@H](CCCN)NC1=O (some centres unmarked) [Compound 3091] | 0.0269
CCC(C)[C@@H]1NC(=O)[C@H](Cc2ccc(-c3ccccc3)cc2)NC(=O)[C@H](C(C)C)NC(=O)[C@H](Cc2cccc(C)c2)NC(=O)[C@H](CC(=O)O)NC(=O)[C@H](Cc2ccc(OCC(=O)O)cc2)NC(=O)[C@H](C(C)O)NC(=O)CSC[C@@H](C(=O)N[C@H](CCN)C(=O)NCCCCCCCCCCCC(=O)O)NC(=O)[C@H](C(C)O)NC(=O)[C@H](C(C)C)NC(=O)[C@H](CC2CCCCC2)NC(=O)[C@H](CCN)NC(=O)[C@@H](CC(C)C)NC(=O)[C@H](CCCN)NC1=O (some centres unmarked) [Compound 3092] | 0.022
CCC(C)[C@@H]1NC(=O)[C@H](Cc2ccc(-c3ccccc3)cc2)NC(=O)[C@H](C(C)C)NC(=O)[C@H](Cc2cccc(C)c2)NC(=O)[C@H](CC(=O)O)NC(=O)[C@H](Cc2ccc(OCC(=O)O)cc2)NC(=O)[C@H](C(C)O)NC(=O)CSC[C@@H](C(=O)N[C@@H](CCN)C(=O)NCCCCCCCCCCCCC(=O)O)NC(=O)[C@H](CO)NC(=O)[C@H](C(C)C)NC(=O)[C@H](CC2CCCCC2)NC(=O)[C@H](CCN)NC(=O)[C@@H](CC(C)C)NC(=O)[C@H](CCCN)NC1=O (stereo partly drawn) [Compound 3093] ({CH2CO}-[Thr(3ξ)]Y(Carboxymethyl)D[Phe(3-Me)]V[Bip][Ile(3ξ)][Orn][dL][Dab][Cha]VSC[Dab]-{NH(CH2)12COOH}; thioether N-14) | 0.0501
CCC(C)[C@@H]1NC(=O)[C@H](Cc2ccc(-c3ccccc3)cc2)NC(=O)[C@H](C(C)C)NC(=O)[C@H](Cc2cccc(C)c2)NC(=O)[C@H](CC(=O)O)NC(=O)[C@H](Cc2ccc(OCC(=O)O)cc2)NC(=O)[C@H](C(C)O)NC(=O)CSC[C@@H](C(=O)NCCOCCOCC(=O)N[C@@H](CCCCN)C(=O)NCCCCCCCCCCCC(=O)O)NC(=O)[C@H](C(C)O)NC(=O)[C@H](C(C)C)NC(=O)[C@H](CC2CCCCC2)NC(=O)[C@H](CCN)NC(=O)[C@@H](CC(C)C)NC(=O)[C@H](CCCN)NC1=O (stereo partly drawn) [Compound 3095] ({CH2CO}-[Thr(3ξ)]Y(Carboxymethyl)D[Phe(3-Me)]V[Bip][Ile(3ξ)][Orn][dL][Dab][Cha]V[Thr(3ξ)]C[AEEA]K[12Ado]-OH; thioether N-14) | 0.0101
CCC(C)[C@@H]1NC(=O)[C@H](Cc2ccc(-c3ccccc3)cc2)NC(=O)[C@H](C(C)C)NC(=O)[C@H](Cc2c[nH]c3ccccc23)NC(=O)[C@H](CC(=O)O)NC(=O)[C@H](Cc2ccc(OCC(=O)O)cc2)NC(=O)[C@H](CCN)NC(=O)CSC[C@@H](C(=O)NCCOCCOCC(=O)N[C@@H](CCCCN)C(=O)NCCCCCCCCCCCC(=O)O)NC(=O)[C@H](C(C)O)NC(=O)[C@H](C(C)C)NC(=O)[C@H](CC2CCCCC2)NC(=O)[C@H](CCN)NC(=O)[C@@H](CC(C)C)NC(=O)[C@H](CCCN)NC1=O (stereo partly drawn) [Compound 3096] ({CH2CO}-[Dab]Y(Carboxymethyl)DWV[Bip][Ile(3ξ)][Orn][dL][Dab][Cha]V[Thr(3ξ)]C[AEEA]K[12Ado]-OH; thioether N-14) | 0.0121
CCC(C)[C@@H]1NC(=O)[C@H](Cc2ccc(-c3ccccc3)cc2)NC(=O)[C@H](C(C)C)NC(=O)[C@H](Cc2c[nH]c3ccccc23)NC(=O)[C@H](CC(=O)O)NC(=O)[C@H](Cc2ccc(OCC(=O)O)cc2)NC(=O)[C@H](C(C)O)NC(=O)CSC[C@@H](C(=O)N[C@@H](CCCN)C(=O)NCCCCCCCCCCCC(=O)O)NC(=O)[C@H](C(C)O)NC(=O)[C@H](C(C)C)NC(=O)[C@H](CC2CCCCC2)NC(=O)[C@H](CCN)NC(=O)[C@@H](CC(C)C)NC(=O)[C@H](CCCN)NC1=O (stereo partly drawn) [Compound 3097] ({CH2CO}-[Thr(3ξ)]Y(Carboxymethyl)DWV[Bip][Ile(3ξ)][Orn][dL][Dab][Cha]V[Thr(3ξ)]C[Orn][12Ado]-OH; thioether N-14) | 0.0228
CCC(C)[C@@H]1NC(=O)[C@H](Cc2ccc(-c3ccccc3)cc2)NC(=O)[C@H](C(C)C)NC(=O)[C@H](Cc2cccc(C)c2)NC(=O)[C@H](CC(=O)O)NC(=O)[C@H](Cc2ccc(OCC(=O)O)cc2)NC(=O)[C@H](C(C)O)NC(=O)CSC[C@@H](C(=O)N[C@@H](CCCN)C(=O)NCCCCCCCCCCCC(=O)O)NC(=O)[C@H](C(C)O)NC(=O)[C@H](C(C)C)NC(=O)[C@H](CC2CCCCC2)NC(=O)[C@H](CCN)NC(=O)[C@@H](CC(C)C)NC(=O)[C@H](CCCN)NC1=O (some centres unmarked) [Compound 3098] | 0.0256
